Experimental data as given in ChEMBL document CHEMBL4665903, “Novel Tricyclic Compounds for Treating Bacterial Infection” (ACS Med Chem Lett, 2020).

Tests used:
Type in all cases: functional, organism-based
Klebsiella pneumoniae = assay: Antibacterial activity against Klebsiella pneumoniae ATCC 10031 assessed as bacterial growth inhibition and measured every 20 mins for 16 hrs
Staphylococcus aureus = assay: Antibacterial activity against Staphylococcus aureus ATCC 29213 assessed as bacterial growth inhibition and measured every 20 mins for 16 hrs
Acinetobacter baumannii = assay: Antibacterial activity against Acinetobacter baumannii ATCC 17978 assessed as bacterial growth inhibition and measured every 20 mins for 16 hrs

SMILES	IC50 (Klebsiella pneumoniae)	IC50 (Staphylococcus aureus)	IC50 (Acinetobacter baumannii)
CNc1cc(F)c(F)c2c1[nH]c1ncc(-c3cnc4ccnn4c3)c(N3CC[C@H]4CN(C)C[C@H]43)c12	< 98 nM	369 nM	< 98 nM
CCNc1cc(F)c(F)c2c1[nH]c1ncc(-c3cnc(OC)nc3)c(N3CCC[C@@H](CN)C3)c12	< 98 nM	394 nM	< 98 nM
CCNc1cc(F)cc2c1[nH]c1ncc(-c3cncc(C#N)c3)c(N3CCC(F)(CN)C3)c12 (stereo not drawn)	< 98 nM	312 nM	< 98 nM
CNc1cc(F)c(F)c2c1[nH]c1ncc(-c3cnc(OC)nc3)c(N3CC[C@@]4(C[C@@H]4N)C3)c12	< 98 nM	184 nM	< 98 nM
CNc1cc(F)c(F)c2c1[nH]c1ncc(-c3cncc(C#N)c3)c(N3CCCC(F)(CN)C3)c12 (stereo not drawn)	< 98 nM	477 nM	< 98 nM
CCNc1cc(F)cc2c1[nH]c1ncc(-c3cncc(C#N)c3)c(N3CC[C@@]4(C[C@H]4N)C3)c12	< 98 nM	863 nM	< 98 nM
